Inhibition data for 2 molecules are collected here from ChEMBL document CHEMBL4387741, “Optimization of novel reversible Bruton's tyrosine kinase inhibitors identified using Tethering-fragment-based screens” (Bioorg Med Chem, 2019).

For experiment [1], the system named is Epidermal growth factor receptor (Homo sapiens), P00533 [UNDEFINED MUTATION]. The experiment is described as follows: Inhibition of human partial length EGFR E746-A750del mutant expressed in bacterial expression system at 10 uM by Kinomescan method relative to control.
The test system of experiment [2] is Mast/stem cell growth factor receptor Kit (Homo sapiens), P10721 [UNDEFINED MUTATION]. The experiment is described as follows: Inhibition of human partial length KIT V559D/V654 double mutant (Y545 to D952 residues) expressed in bacterial expression system at 10 uM by Kinomescan method relative to control.
Chain of Mast/stem cell growth factor receptor Kit (Homo sapiens), P10721 [UNDEFINED MUTATION] (P10721 whole entry, looked up, stated change not applied, the tested form may be a part): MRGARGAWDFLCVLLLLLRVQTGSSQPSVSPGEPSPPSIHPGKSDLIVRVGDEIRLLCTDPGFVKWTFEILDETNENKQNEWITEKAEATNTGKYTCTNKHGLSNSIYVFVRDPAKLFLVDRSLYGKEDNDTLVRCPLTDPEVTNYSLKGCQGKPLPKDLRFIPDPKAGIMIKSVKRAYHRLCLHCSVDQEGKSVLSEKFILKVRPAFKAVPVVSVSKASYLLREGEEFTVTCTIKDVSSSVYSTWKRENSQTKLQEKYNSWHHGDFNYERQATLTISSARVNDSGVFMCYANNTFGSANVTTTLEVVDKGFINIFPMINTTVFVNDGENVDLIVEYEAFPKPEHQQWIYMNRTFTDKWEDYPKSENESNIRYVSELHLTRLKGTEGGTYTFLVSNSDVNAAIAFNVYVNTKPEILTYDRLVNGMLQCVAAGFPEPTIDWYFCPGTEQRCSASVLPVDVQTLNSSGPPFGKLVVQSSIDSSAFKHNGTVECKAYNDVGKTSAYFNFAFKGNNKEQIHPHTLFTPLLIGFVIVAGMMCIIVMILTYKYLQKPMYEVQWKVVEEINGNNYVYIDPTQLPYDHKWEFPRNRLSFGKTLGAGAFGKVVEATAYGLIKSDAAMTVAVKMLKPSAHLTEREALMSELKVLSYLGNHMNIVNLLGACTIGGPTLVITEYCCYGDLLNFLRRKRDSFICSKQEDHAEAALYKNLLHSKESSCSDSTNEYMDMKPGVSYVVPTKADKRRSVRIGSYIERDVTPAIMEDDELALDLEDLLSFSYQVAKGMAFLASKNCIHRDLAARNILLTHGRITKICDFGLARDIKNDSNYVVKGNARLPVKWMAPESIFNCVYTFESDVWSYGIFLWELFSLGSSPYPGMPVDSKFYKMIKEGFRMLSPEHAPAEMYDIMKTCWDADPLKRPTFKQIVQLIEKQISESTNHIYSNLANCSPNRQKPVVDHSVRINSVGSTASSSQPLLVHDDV
Experiment [3] addresses Myosin light chain kinase (Homo sapiens) (UniProt Q32MK0). As to the kind of experiment: Inhibition of wild-type human partial length MLCK (D488 to K800 residues) expressed in bacterial expression system at 10 uM by Kinomescan method relative to control.
In experiment [4] the target is Aurora kinase C (Homo sapiens) (UniProt Q9UQB9). The experiment is described as follows: Inhibition of wild-type human full length AURKC (M1 to S275 residues) expressed in bacterial expression system at 10 uM by Kinomescan method relative to control.
Experiment [5] concerns the target Serine/threonine-protein kinase Nek10 (Homo sapiens) (UniProt Q6ZWH5). The experiment is described as follows: Inhibition of wild-type human partial length NEK10 (L488 to R809 residues) expressed in mammalian expression system at 10 uM by Kinomescan method relative to control.
Experiment [6] has as its system Receptor-type tyrosine-protein kinase FLT3 (Homo sapiens), P36888 [R834Q]. The experiment is described as follows: Inhibition of human partial length FLT3 R834Q mutant (V592 to Y969 residues) expressed in mammalian expression system at 10 uM by Kinomescan method relative to control.
Experiment [7] concerns the target RAC-gamma serine/threonine-protein kinase (Homo sapiens) (UniProt Q9Y243). As to the kind of experiment: Inhibition of wild-type human partial length AKT3 expressed in bacterial expression system at 10 uM by Kinomescan method relative to control.
The target of experiment [8] is Mitogen-activated protein kinase 4 (Homo sapiens) (UniProt P31152). As to the kind of experiment: Inhibition of wild-type human partial length ERK4 (M1 to L365 residues) expressed in bacterial expression system at 10 uM by Kinomescan method relative to control.
For experiment [9], the target named is Tyrosine-protein kinase JAK1 (Homo sapiens) (UniProt P23458). As to the kind of experiment: Inhibition of wild-type human partial length JAK1 JH1 catalytic domain (V856 to K1154 residues) expressed in bacterial expression system at 10 uM by Kinomescan method relative to control.
Experiment [10] concerns the target Homeodomain-interacting protein kinase 4 (Homo sapiens) (UniProt Q8NE63). As to the kind of experiment: Inhibition of wild-type human partial length HIPK4 (M1 to V384 residues) expressed in bacterial expression system at 10 uM by Kinomescan method relative to control.
Experiment [11] addresses Ephrin type-A receptor 4 (Homo sapiens) (UniProt P54764). The experiment is described as follows: Inhibition of wild-type human partial length EPHA4 (T601 to R897 residues) expressed in bacterial expression system at 10 uM by Kinomescan method relative to control.
Experiment [12] concerns Phosphatidylinositol 4,5-bisphosphate 3-kinase catalytic subunit alpha isoform (Homo sapiens), P42336 [H1047Y]. As to the kind of experiment: Inhibition of human partial length PIK3CA H1047Y mutant (R108 to N1068 residues) expressed in mammalian expression system at 10 uM by Kinomescan method relative to control.
Experiment [13] deals with Cyclin-dependent kinase 14 (Homo sapiens) (UniProt O94921). The experiment is described as follows: Inhibition of wild-type human full length PFTK1 (M1 to H451 residues) expressed in bacterial expression system at 10 uM by Kinomescan method relative to control.
In experiment [14] the test system is Phosphatidylinositol 4,5-bisphosphate 3-kinase catalytic subunit alpha isoform (Homo sapiens), P42336 [H1047L]. As to the kind of experiment: Inhibition of human partial length PIK3CA H1047L mutant (R108 to N1068 residues) expressed in mammalian expression system at 10 uM by Kinomescan method relative to control.
Experiment [15] concerns the target Tyrosine-protein kinase Fyn (Homo sapiens) (UniProt P06241). The experiment is described as follows: Inhibition of wild-type human partial length FYN (T243 to L534 residues) expressed in bacterial expression system at 10 uM by Kinomescan method relative to control.
In experiment [16] the target is MAP/microtubule affinity-regulating kinase 3 (Homo sapiens) (UniProt P27448). The experiment is described as follows: Inhibition of wild-type human full length MARK3 (M1 to L729 residues) expressed in bacterial expression system at 10 uM by Kinomescan method relative to control.
Experiment [17] deals with Dual specificity tyrosine-phosphorylation-regulated kinase 1B (Homo sapiens) (UniProt Q9Y463). As to the kind of experiment: Inhibition of wild-type human full length DYRK1B (M1 to S629 residues) expressed in bacterial expression system at 10 uM by Kinomescan method relative to control.
Chain of Dual specificity tyrosine-phosphorylation-regulated kinase 1B (Homo sapiens) (Q9Y463 whole entry, looked up, the tested form may be a part): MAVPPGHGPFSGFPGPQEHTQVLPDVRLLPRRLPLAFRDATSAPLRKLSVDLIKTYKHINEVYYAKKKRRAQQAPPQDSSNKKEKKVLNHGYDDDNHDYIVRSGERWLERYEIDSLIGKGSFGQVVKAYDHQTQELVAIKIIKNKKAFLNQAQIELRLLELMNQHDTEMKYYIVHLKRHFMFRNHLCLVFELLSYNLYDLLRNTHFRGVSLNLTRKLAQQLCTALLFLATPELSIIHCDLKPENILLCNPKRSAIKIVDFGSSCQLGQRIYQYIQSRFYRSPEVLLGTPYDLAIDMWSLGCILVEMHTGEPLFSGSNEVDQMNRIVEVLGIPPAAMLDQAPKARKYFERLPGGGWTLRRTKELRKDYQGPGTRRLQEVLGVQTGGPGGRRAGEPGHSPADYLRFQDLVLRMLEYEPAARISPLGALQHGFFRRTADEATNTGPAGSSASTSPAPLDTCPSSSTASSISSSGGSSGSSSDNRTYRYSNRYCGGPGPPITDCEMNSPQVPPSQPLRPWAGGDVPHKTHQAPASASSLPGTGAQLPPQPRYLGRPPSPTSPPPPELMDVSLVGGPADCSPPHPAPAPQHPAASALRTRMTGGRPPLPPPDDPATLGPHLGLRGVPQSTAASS
The target in experiment [18] is Ephrin type-A receptor 7 (Homo sapiens) (UniProt Q15375). As to the kind of experiment: Inhibition of wild-type human partial length EPHA7 (Y608 to S912 residues) expressed in bacterial expression system at 10 uM by Kinomescan method relative to control.
Experiment [19] concerns the target Dual specificity mitogen-activated protein kinase kinase 1 (Homo sapiens) (UniProt Q02750). As to the kind of experiment: Inhibition of wild-type human full length MEK1 (M1 to V393 residues) expressed in mammalian expression system at 1 uM by Kinomescan method relative to control.
For experiment [20], the target named is Non-receptor tyrosine-protein kinase TYK2 (Homo sapiens) (UniProt P29597). The experiment is described as follows: Inhibition of wild-type human partial length TYK2 JH1 catalytic domain (V877 to C1187 residues) expressed in mammalian expression system at 1 uM by Kinomescan method relative to control.
Experiment [21] concerns the target Peripheral plasma membrane protein CASK (Homo sapiens) (UniProt O14936). As to the kind of experiment: Inhibition of wild-type human partial length CASK (M1 to H315 residues) expressed in mammalian expression system at 1 uM by Kinomescan method relative to control.
Experiment [22] addresses Phosphatidylinositol 4-phosphate 3-kinase C2 domain-containing subunit beta (Homo sapiens) (UniProt O00750). As to the kind of experiment: Inhibition of wild-type human partial length PIK3C2B (M1 to L1634 residues) expressed in mammalian expression system at 1 uM by Kinomescan method relative to control.
In experiment [23] the test system is Tyrosine-protein kinase ABL1 (Homo sapiens), P00519 [Q252H]. The experiment is described as follows: Inhibition of human phosphorylated ABL1 Q252H mutant expressed in mammalian expression system at 1 uM by Kinomescan method relative to control.
In experiment [24] the target is Inhibitor of nuclear factor kappa-B kinase subunit beta (Homo sapiens) (UniProt O14920). As to the kind of experiment: Inhibition of wild-type human full length IKK-beta (M1 to S756 residues) expressed in mammalian expression system at 1 uM by Kinomescan method relative to control.
Experiment [25] has as its target Serine/threonine-protein kinase 4 (Homo sapiens) (UniProt Q13043). The experiment is described as follows: Inhibition of wild-type human full length MST1 (M1 to F487 residues) expressed in bacterial expression system at 1 uM by Kinomescan method relative to control.
The target in experiment [26] is Phosphatidylinositol 4,5-bisphosphate 3-kinase catalytic subunit delta isoform (Homo sapiens) (UniProt O00329). As to the kind of experiment: Inhibition of wild-type human partial length PIK3CD (R108 to Q1044 residues) expressed in mammalian expression system at 1 uM by Kinomescan method relative to control.

Chain of Myosin light chain kinase (Homo sapiens) (Q32MK0 whole entry, the tested form may be a part): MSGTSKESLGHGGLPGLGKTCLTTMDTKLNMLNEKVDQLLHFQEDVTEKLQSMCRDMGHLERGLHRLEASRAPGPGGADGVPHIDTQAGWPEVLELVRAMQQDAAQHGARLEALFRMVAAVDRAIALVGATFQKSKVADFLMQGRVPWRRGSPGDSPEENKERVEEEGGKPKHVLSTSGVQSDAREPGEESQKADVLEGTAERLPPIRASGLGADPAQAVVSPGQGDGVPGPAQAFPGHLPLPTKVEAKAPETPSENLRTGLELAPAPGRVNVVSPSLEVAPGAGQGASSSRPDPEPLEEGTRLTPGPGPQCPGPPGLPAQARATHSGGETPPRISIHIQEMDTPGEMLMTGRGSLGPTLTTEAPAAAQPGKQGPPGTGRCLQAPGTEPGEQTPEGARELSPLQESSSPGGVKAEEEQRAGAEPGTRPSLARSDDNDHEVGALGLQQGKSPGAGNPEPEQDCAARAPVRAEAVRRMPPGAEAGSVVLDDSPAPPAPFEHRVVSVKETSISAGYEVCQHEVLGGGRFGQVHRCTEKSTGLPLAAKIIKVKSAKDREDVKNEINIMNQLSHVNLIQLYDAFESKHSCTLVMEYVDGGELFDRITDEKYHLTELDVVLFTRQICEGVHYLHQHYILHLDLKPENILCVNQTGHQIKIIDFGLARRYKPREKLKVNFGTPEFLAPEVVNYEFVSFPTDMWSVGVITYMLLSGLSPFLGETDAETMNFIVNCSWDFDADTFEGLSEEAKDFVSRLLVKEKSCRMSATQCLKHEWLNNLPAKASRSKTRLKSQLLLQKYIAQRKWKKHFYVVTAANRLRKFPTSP
Chain of Phosphatidylinositol 4-phosphate 3-kinase C2 domain-containing subunit beta (Homo sapiens) (O00750 whole entry, the tested form may be a part): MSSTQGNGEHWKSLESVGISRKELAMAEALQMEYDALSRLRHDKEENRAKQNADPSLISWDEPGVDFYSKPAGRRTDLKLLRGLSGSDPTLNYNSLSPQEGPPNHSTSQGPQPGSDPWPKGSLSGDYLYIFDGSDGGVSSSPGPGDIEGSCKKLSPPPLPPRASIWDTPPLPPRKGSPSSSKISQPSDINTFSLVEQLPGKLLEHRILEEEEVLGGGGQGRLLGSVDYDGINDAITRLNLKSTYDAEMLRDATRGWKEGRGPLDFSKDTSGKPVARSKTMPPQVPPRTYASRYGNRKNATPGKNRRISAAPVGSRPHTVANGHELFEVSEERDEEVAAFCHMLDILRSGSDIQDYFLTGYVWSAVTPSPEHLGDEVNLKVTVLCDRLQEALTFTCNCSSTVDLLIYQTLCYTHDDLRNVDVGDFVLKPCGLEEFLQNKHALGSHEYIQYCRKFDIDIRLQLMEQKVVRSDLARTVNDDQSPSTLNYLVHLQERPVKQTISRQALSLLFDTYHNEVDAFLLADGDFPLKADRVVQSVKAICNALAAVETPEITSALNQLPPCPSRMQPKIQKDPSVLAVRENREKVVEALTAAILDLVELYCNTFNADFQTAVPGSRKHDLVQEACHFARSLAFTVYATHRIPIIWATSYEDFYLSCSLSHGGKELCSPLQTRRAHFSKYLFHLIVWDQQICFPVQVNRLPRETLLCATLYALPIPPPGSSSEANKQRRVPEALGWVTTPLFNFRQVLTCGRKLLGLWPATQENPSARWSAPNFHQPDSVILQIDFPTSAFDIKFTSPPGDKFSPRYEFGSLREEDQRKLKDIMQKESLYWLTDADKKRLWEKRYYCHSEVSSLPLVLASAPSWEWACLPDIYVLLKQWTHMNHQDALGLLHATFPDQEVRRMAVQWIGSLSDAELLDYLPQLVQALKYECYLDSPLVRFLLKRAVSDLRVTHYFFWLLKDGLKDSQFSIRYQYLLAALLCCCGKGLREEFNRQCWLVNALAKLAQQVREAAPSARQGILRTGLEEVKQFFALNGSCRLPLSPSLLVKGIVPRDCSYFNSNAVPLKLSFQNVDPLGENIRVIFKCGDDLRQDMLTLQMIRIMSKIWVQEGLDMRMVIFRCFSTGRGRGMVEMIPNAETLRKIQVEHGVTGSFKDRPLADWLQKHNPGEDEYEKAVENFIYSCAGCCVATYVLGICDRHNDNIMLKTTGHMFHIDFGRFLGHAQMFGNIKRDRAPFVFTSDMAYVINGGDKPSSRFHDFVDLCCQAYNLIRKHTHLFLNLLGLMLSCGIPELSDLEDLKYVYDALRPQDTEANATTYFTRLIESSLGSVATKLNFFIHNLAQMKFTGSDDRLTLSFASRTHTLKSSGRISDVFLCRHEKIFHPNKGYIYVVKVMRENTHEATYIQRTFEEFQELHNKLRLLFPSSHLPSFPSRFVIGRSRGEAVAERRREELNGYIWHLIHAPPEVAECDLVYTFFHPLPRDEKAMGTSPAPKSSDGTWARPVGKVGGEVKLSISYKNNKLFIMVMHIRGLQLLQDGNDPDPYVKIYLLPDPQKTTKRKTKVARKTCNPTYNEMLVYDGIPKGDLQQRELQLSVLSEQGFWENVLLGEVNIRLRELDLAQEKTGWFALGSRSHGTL
Chain of Peripheral plasma membrane protein CASK (Homo sapiens) (O14936 whole entry, the tested form may be a part): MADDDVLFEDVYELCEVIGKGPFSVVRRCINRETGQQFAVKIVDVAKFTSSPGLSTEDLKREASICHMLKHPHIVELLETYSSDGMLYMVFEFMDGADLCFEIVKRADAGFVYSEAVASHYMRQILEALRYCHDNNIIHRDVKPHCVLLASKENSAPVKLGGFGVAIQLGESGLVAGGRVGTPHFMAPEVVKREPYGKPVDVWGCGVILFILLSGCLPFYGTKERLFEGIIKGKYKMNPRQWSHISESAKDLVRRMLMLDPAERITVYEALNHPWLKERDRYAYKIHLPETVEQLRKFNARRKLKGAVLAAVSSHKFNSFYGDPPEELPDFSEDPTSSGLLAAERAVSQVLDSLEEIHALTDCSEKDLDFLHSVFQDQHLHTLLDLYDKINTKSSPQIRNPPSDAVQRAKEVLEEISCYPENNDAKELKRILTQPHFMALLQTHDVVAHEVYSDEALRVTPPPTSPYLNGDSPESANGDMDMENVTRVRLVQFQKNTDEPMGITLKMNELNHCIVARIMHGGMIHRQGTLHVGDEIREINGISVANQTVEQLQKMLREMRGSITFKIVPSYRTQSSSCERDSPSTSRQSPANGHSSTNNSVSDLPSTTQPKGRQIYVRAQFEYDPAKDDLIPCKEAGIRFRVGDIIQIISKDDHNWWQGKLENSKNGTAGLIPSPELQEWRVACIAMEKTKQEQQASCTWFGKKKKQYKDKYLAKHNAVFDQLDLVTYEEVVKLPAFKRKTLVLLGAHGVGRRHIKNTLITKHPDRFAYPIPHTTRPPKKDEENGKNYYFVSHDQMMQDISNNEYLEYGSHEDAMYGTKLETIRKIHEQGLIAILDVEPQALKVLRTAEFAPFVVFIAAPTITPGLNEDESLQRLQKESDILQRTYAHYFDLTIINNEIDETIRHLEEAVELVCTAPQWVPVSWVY

Consider `O=C(Nc1cccc([C@H]2CCCN(c3ncnc4[nH]ccc34)C2)c1)Nc1ccccc1N1CCCC1`, for which the inhibition (as a rule, the relative decrease from the control value, in per cent) in [1] was found to be 75%; in experiment [2], 26%; in experiment [3] it was 100%; in [4], 4.3%; in [5], 4.3%; in [6], 44%. Further, the inhibition worked out at 100% in experiment [7]; 100% in [8]; 29% in [9]; 100% in [10]; 98% in experiment [11]; 61% in [12]. For the same molecule, the inhibition was determined as 61% in experiment [13]; 100% in [14]; 67% in experiment [15]; 100% in experiment [16]; 94% in experiment [17]; 72% in experiment [18].

Consider `O=C(Nc1cccc([C@@H]2CN(c3ncnc4[nH]ccc34)CCN2CCO)c1)Nc1c(F)cccc1N1CCCC1`, for which the inhibition in experiment [19] was found to be 68%; in experiment [20], 0%; in experiment [21] it was 78%; in [22] it was 87%; in experiment [23], 95%; in [24], 74%. In addition, the inhibition in [25] was 78%; in experiment [26], 100%.
